Experiment: Release study of two dyes from electrospun fiber mat immersed in PBS at 37° C., UV absorbance
Type: physicochemical
Method: 6.36 mg rhodamine B was dissolved in 20 mL PBS. 200 μL solution of this solution was taken and 1.8 mL PBS was added to achieve a 10× dilution. The solution was serially diluted from 100× to 1000×, and the corresponding absorbance of each was measured. Rhodamine B concentration vs absorbance was plotted.
The above solution was diluted to 30, 40, 50, 60, 70, 80, 90, 100, 150, 200× concentrations. UV absorbance was measured for each solution.
In a 20 mL scintillation vial, 2 cm×2 cm fiber mat of the polyester was immersed in 20 ml PBS. The vial was stored in 37° C. incubator. 2 mL PBS was removed at each time point and replaced with 2 mL fresh PBS, and UV absorbance was measured. These measurements were performed in triplicates. Dye release was calculated according to the UV absorbance standard curve.

## CCN(CC)c1ccc2c(-c3ccccc3C(=O)O)c3ccc(=[N+](CC)CC)cc-3oc2c1.[Cl-] [rhodamine B, Rhodamine B]
After day 55, fiber mat of p(mPhe-Keto-BocGlu) mixed with rhodamine B and coumarin dye
  cumulative release of dye from fiber mat: 17.0±3.2%
After day 90, fiber mat of p(mPhe-Keto-BocGlu) mixed with rhodamine B and coumarin dye
  cumulative release of dye from fiber mat: 30.4±6.5%
Days 0-7, fiber mat of p(mPhe-Keto-BocGlu) mixed with rhodamine B and coumarin dye
  cumulative release of dye from fiber mat: 7.4±1.6%
